# Assay results taken from patent US12459951B2, “Compounds that interact with RAS superfamily proteins for treatment of cancers, inflammatory diseases, rasopathies, and fibrotic disease” (SHY Therapeutics, LLC, priority 2022, dated 2025).
# Tested on: JNK phosphorylation
# Assay: JNK Activation Assay (western blot), Panc-1
# Format: cell-based, human
# Details: at 10 μM, Panc-1 pancreatic cancer cell line; starred symbols = activation
# Procedure: Protocol for JNK Activation Assay
# This assay is referred to as the “JNK Activation Assay” throughout this application.
# Cell lines: Human tumor-derived pancreatic cancer cell line Panc-1 (expressing KRas […] mutant) was purchased from American Type Culture Collection and grown in complete DMEM-High Glucose medium, supplemented with penicillin (100 U/mL), streptomycin (100 μg/mL), and 10% heat-inactivated FBS at 37° C. in a humidified incubator with 5% CO2.
# Method 1: Cells were plated at 350000 cells/well density in a 12-well plate, allowed 3 hours to adhere to the plate, then starved in the appropriate medium in the presence of 0.5% FBS overnight. The small molecules to be tested were added to the cells in the final concentration of 10 μM in the presence of 0.3% DMSO for 6 hours incubation at 37° C. For IC50 value determination, serial dilutions of compounds were added to cells under the same conditions. Next, cells were stimulated with 1.5 ng/ml EGF for 15 minutes then cells were lysed with lysis buffer containing 1% Triton X-100, EDTA, and Halt™ Protease & Phosphatase Inhibitor Cocktail (Thermo Scientific). Protein concentration was assessed by BCA protein assay (Thermo Scientific). Phosphorylation level of JNK was determined by western blot.
# Method 2: Cells were plated at 350000 cells/well density in a 12-well plate in the presence of 10% FBS. The next day small molecules to be tested were added to the cells in the final concentration of 10 μM in the presence of 0.3% DMSO for 6 hours incubation at 37° C. For IC50 value determination, serial dilutions of compounds were added to cells under the same conditions. Next, cells were lysed with lysis buffer containing 1% Triton X-100, EDTA, and Halt™ Protease & Phosphatase Inhibitor Cocktail (Thermo Scientific). Protein concentration was assessed by BCA protein assay (Thermo Scientific). Phosphorylation level of JNK was determined by western blot.
# Western blot protocol: Equal amounts of protein (15-50 μg) were separated by SDS-PAGE and transferred to nitrocellulose membranes (Invitrogen by Thermo Fisher Scientific). The membrane was stained with Ponceau S Stain (Boston BioProducts) to verify uniform protein loading. Membranes were blocked with 10% milk and phosphorylation levels of JNK were assessed by incubating overnight at 4° C. with the antibody Phospho-SAPK/JNK (Thr183/Tyr185), from Cell Signaling Technology. Then the membranes were incubated with HRP-conjugated secondary antibody (Jackson Immunoresearch, West Grove, PA). Bands were incubated in Amersham ECL Prime Western Blotting Detection Reagent (GE Healthcare) and visualized using the ChemiDoc MP imaging system (Bio-Rad).
row,Compound,% inh of JNK in Panc-1
1,"CCn1ccc(-c2cn3nc(-c4nccn4C)nc(Nc4cc(OC)ncn4)c3c2C)n1 [Compound 64, 6-(1-Ethyl-1H-pyrazol-3-yl)-N-(6-methoxypyrimidin-4-yl)-5-methyl-2-(1-methyl-1H-imidazol-2-yl)pyrrolo[2,1-f][1,2,4]triazin-4-amine]",H* (H* ≥ 100% activation)
2,"COCC1CCN(c2nc(-c3ccccn3)nn3cc(-c4ccn(C(C)C)n4)c(-c4ccccc4)c23)C1 (racemic) [Compound 25, rac 6-(1-Isopropyl-1H-pyrazol-3-yl)-4-(3-(methoxymethyl)pyrrolidin-1-yl)-5-phenyl-2-(pyridin-2-yl)pyrrolo[2,1-f][1,2,4]triazine]",H* (H* ≥ 100% activation)
3,"Cc1c(-c2ccn(C(C)C)n2)cn2nc(-c3nccn3C)nc(Nc3ccncc3)c12 [Compound 52, 6-(1-Isopropyl-1H-pyrazol-3-yl)-5-methyl-2-(1-methyl-1H-imidazol-2-yl)-N-(pyridin-4-yl)pyrrolo[2,1-f][1,2,4]triazin-4-amine]",0 (0 = 0% inhibition)
4,"COc1cccc(-c2cn3nc(-c4nccn4C)nc(N[C@@H]4CC[C@@H](OC)C4)c3c2-c2ccccn2)c1F (racemic) [Compound 46, rac 6-(2-Fluoro-3-methoxyphenyl)-N-((1R,3R)-3-methoxycyclopentyl)-2-(1-methyl-1H-imidazol-2-yl)-5-(pyridin-2-yl)pyrrolo[2,1-f][1,2,4]triazin-4-amine]",H* (H* ≥ 100% activation)
5,"COc1cccc(Nc2nc(-c3nccn3C)nn3cc(-c4ccn(C(C)C)n4)c(-c4ccccc4)c23)n1 [Compound 23, 6-(1-Isopropyl-1H-pyrazol-3-yl)-N-(6-methoxypyridin-2-yl)-2-(1-methyl-1H-imidazol-2-yl)-5-phenylpyrrolo[2,1-f][1,2,4]triazin-4-amine]",H* (H* ≥ 100% activation)
6,"COc1cccc(-c2cn3nc(-c4nccn4C)nc(N[C@H]4C[C@@H](OC)C4)c3c2-c2ccccc2)c1Cl [Compound 31, 6-(2-Chloro-3-methoxyphenyl)-N-((1s,3s)-3-methoxycyclobutyl)-2-(1-methyl-1H-imidazol-2-yl)-5-phenylpyrrolo[2,1-f][1,2,4]triazin-4-amine]",H* (H* ≥ 100% activation)
7,"COc1cccc(-c2cn3nc(-c4nccn4C)nc(N[C@H]4C[C@H](OC)C4)c3c2-c2ccn(C)n2)c1F [Compound 47, 6-(2-Fluoro-3-methoxyphenyl)-N-((1r,3r)-3-methoxycyclobutyl)-2-(1-methyl-1H-imidazol-2-yl)-5-(1-methyl-1H-pyrazol-3-yl)pyrrolo[2,1-f][1,2,4]triazin-4-amine]",H* (H* ≥ 100% activation)
8,"COc1ccc(-c2cn3nc(-c4nccn4C)nc(Nc4cc(OC)ncn4)c3c2C)cn1 [Compound 66, 6-(6-Methoxypyridin-3-yl)-N-(6-methoxypyrimidin-4-yl)-5-methyl-2-(1-methyl-1H-imidazol-2-yl)pyrrolo[2,1-f][1,2,4]triazin-4-amine]",H* (H* ≥ 100% activation)
9,"Cc1c(-c2ccn(C(C)C)n2)cn2nc(-c3nccn3C)nc(Nc3cc(C4CC4)no3)c12 [Compound 69, 3-Cyclopropyl-N-(6-(1-isopropyl-1H-pyrazol-3-yl)-5-methyl-2-(1-methyl-1H-imidazol-2-yl)pyrrolo[2,1-f][1,2,4]triazin-4-yl)isoxazol-5-amine]",H* (H* ≥ 100% activation)
10,"COCCO[C@H]1C[C@H](Nc2nc(-c3nccn3C)nn3cc(-c4cccc(OC)c4F)c(-c4ccccc4)c23)C1 [Compound 44, 6-(2-Fluoro-3-methoxyphenyl)-N-((1r,3r)-3-(2-methoxyethoxy)cyclobutyl)-2-(1-methyl-1H-imidazol-2-yl)-5-phenylpyrrolo[2,1-f][1,2,4]triazin-4-amine]",H* (H* ≥ 100% activation)
11,"COc1cnc(Nc2nc(-c3nccn3C)nn3cc(-c4ccn(C(C)C)n4)c(C)c23)nc1 [Compound 56, 6-(1-Isopropyl-1H-pyrazol-3-yl)-N-(5-methoxypyrimidin-2-yl)-5-methyl-2-(1-methyl-1H-imidazol-2-yl)pyrrolo[2,1-f][1,2,4]triazin-4-amine]",H* (H* ≥ 100% activation)
12,"COCCNc1nc(-c2nccn2C)nn2cc(-c3cccc(OC)c3Cl)c(-c3ccccc3)c12 [Compound 29, 6-(2-Chloro-3-methoxyphenyl)-N-(2-methoxyethyl)-2-(1-methyl-1H-imidazol-2-yl)-5-phenylpyrrolo[2,1-f][1,2,4]triazin-4-amine]",H (H = 100% inhibition)
13,"COc1cccc(-c2cn3nc(-c4nccn4C)nc(O)c3c2-c2ccccc2)c1Cl [Compound 28, 6-(2-Chloro-3-methoxyphenyl)-2-(1-methyl-1H-imidazol-2-yl)-5-phenylpyrrolo[2,1-f][1,2,4]triazin-4-ol]",H* (H* ≥ 100% activation)
14,"Cc1c(-c2ccn(C(C)C)n2)cn2nc(-c3nccn3C)nc(Nc3nnc(C4CC4)o3)c12 [Compound 67, 5-Cyclopropyl-N-(6-(1-isopropyl-1H-pyrazol-3-yl)-5-methyl-2-(1-methyl-1H-imidazol-2-yl)pyrrolo[2,1-f][1,2,4]triazin-4-yl)-1,3,4-oxadiazol-2-amine]",H* (H* ≥ 100% activation)
15,"COc1cc(Nc2nc(-c3nccn3C)nn3cc(-c4ccn(C(C)C)n4)c(C)c23)n[nH]1 [Compound 51, 6-(1-Isopropyl-1H-pyrazol-3-yl)-N-(5-methoxy-1H-pyrazol-3-yl)-5-methyl-2-(1-methyl-1H-imidazol-2-yl)pyrrolo[2,1-f][1,2,4]triazin-4-amine]",H* (H* ≥ 100% activation)
16,"CO[C@H]1CC[C@@H](Nc2nc(-c3nccn3C)nn3cc(-c4ccn(C(C)C)n4)c(C(C)C)c23)C1 (racemic) [Compound 36, rac 5-Isopropyl-6-(1-isopropyl-1H-pyrazol-3-yl)-N-((1R,3S)-3-methoxycyclopentyl)-2-(1-methyl-1H-imidazol-2-yl)pyrrolo[2,1-f][1,2,4]triazin-4-amine]",H* (H* ≥ 100% activation)
17,"Cc1c(-c2ccn(C(C)C)n2)cn2nc(-c3nccn3C)nc(Nc3ccn(C(C)C)n3)c12 [Compound 72, N,6-bis(1-Isopropyl-1H-pyrazol-3-yl)-5-methyl-2-(1-methyl-1H-imidazol-2-yl)pyrrolo[2,1-f][1,2,4]triazin-4-amine]",H* (H* ≥ 100% activation)
18,"Cc1c(-c2ccn(C(C)C)n2)cn2nc(-c3nccn3C)nc(Nc3nc(C4CC4)no3)c12 [Compound 70, 3-Cyclopropyl-N-(6-(1-isopropyl-1H-pyrazol-3-yl)-5-methyl-2-(1-methyl-1H-imidazol-2-yl)pyrrolo[2,1-f][1,2,4]triazin-4-yl)-1,2,4-oxadiazol-5-amine]",H* (H* ≥ 100% activation)
19,"COc1cc(Nc2nc(-c3nccn3C)nn3cc(-c4cccc(OC)n4)c(C)c23)ncn1 [Compound 65, 6-(6-Methoxypyridin-2-yl)-N-(6-methoxypyrimidin-4-yl)-5-methyl-2-(1-methyl-1H-imidazol-2-yl)pyrrolo[2,1-f][1,2,4]triazin-4-amine]",H* (H* ≥ 100% activation)
